28 molecules from PubChem BioAssay (NCI) can be followed below.

Several values for one entry are separate records, joined by “and”; a condition that tells them apart may be missing. Equal entries are not always repeated.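 Exposure lasted 48 hours, with cells grown in 96-well plates and compounds tested at five concentrations. GI50 is the concentration that inhibits growth by half. TGI is the concentration that stops growth completely.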

In one assay the test system is OVCAR-5 ovarian. Description: DTP human tumour cell line panel, 48 h.
Usually TGI stands for the concentration at which net growth stops. A low value points to greater sensitivity of the cells. In turn, `COC(=O)/C=C/c1c(CC=C(C)C)ncn1C` gave a TGI greater than 100 µM.
For the molecule `CC(C)C(=O)Nc1nc2c(ncn2C2OC(CO)C(O)C2O)c(=O)[nH]1` (configuration not stated), the TGI was greater than 100 µM.
As for `O=S(=O)(c1ccccc1)C1CN2OC1(S(=O)(=O)c1ccccc1)CC2c1ccc(Br)cc1` (configuration not stated), the concentration for total growth inhibition (TGI) was greater than 100 µM.
The same measure, in the same setting: to `O=Cc1ccc2c(c1-c1c(C=O)ccc3c1OCO3)OCO2` belongs greater than 100 µM.
The molecule `CC(=O)O[C@H]1CCC2[C@@H]3CCC4Nc5[nH]ncc5C[C@]4(C)C3CC[C@@]21C` (some centres not stated) registered a TGI greater than 100 µM.
Still for that read-out and setting: to `Cc1cc(C)nc(NS(=O)(=O)c2ccc(NC(=O)c3cccc4c(Nc5ccc(S(N)(=O)=O)cc5)c5ccccc5nc34)cc2)n1` belongs greater than 100 µM.
Molecule `Cc1cc(S(=O)(=O)O)c(NC(=O)C(=O)Cc2cc(=O)oc3cc(O)ccc23)cc1Cl` displayed a TGI greater than 100 µM.

The next assay concerns SW-620 colon. Description: DTP human tumour cell line panel, 48 h.
`CC(C)C(=O)NS(=O)(=O)c1ccccc1` returned a total growth inhibition concentration (TGI) greater than 100 µM.
As for `COC1(OC)CC2C(=O)N(Cc3ccccc3)C1C=C2S(=O)(=O)c1ccccc1` (configuration not stated), the TGI was found to be 28.5 µM. In other words, the double-digit micromolar range.
The term GI50 denotes the concentration that inhibits growth by half. On to `Cc1cc(C)c(/C=C2\C(=O)Nc3ccc(NC(=O)CCCCCCC(=O)NO)cc32)[nH]1`, for which the GI50 was 0.317 µM and the TGI was 36.2 µM.
As to `CC(=O)[O][Ga]([Br])[O]C(C)=O`, the GI50 is greater than 100 µM and the TGI is greater than 100 µM.
With `COc1cc2c(OC)cc1CSCc1sc(C)c(c1Br)CSC2`, the TGI is greater than 100 µM.
`CC(C)N(C(=O)C12C3C4C1(I)C1C2C3(I)C41C(=O)N(C(C)C)C(C)C)C(C)C` (configuration not stated) showed a TGI greater than 59.6 µM.
For the molecule `Cc1cccc(C)c1NC(=O)C(=O)C(C(=O)c1ccccc1-c1ccccc1)C1OC(=O)c2ccccc21` (configuration not stated), the TGI came out at 65.2 µM.
The same measure, in the same setting: then `CC1COC(C)(C)P(=O)(c2ccccc2)C1` (configuration not stated), with greater than 100 µM; and `Cc1ccc(S(=O)(=O)c2ccc(N)cc2)cc1`, with greater than 100 µM.
With `COC(=O)[C@H]1C=C[C@@H](C)n2c(=O)c3cc4ccccc4cc3c(=O)n21`, the TGI was greater than 100 µM.
On the same count and under the same terms, to `COc1cc(C=O)c(-c2cc(OC)c(OC)cc2C=O)cc1OC` belongs greater than 100 µM; to `N#CC(C(=O)C(=O)Nc1ccc(Cl)cc1)c1ccccc1` (configuration not stated), greater than 100 µM; to `COC(=O)/C=C1\CCC(C)O1` (configuration not stated), greater than 100 µM.
With `O=C(/C=C/c1ccccc1Cl)NC1C=Nc2ccc([N+](=O)[O-])cc2NC1` (configuration not stated), the TGI was 18.2 µM.
`CCCO/S(=N\S(=O)(=O)c1ccccc1)c1ccccc1[N+](=O)[O-]` (configuration not stated) registered a TGI greater than 100 µM.
In the case of `Cc1ccc(C)c(N=C2NC(=O)C(CC(=O)Nc3ccc(Cl)cc3Cl)S2)c1` (configuration not stated), the TGI was greater than 100 µM.
Consider `C/C(CC(=O)Nc1cccc(Cl)c1C)=N\NC(=O)c1ccncc1`, for which the TGI is greater than 100 µM.
With `COC(=O)[C@@H](C)C[C@H](Cc1ccccc1)NC(=O)c1csc([C@@H](C[C@H](C(C)C)N(C)C(=O)[C@@H](NC(=O)[C@H]2CCCCN2C)C2CCCCC2)OC(C)=O)n1`, the GI50 is 0.000424 µM and 0.0025 µM; the TGI is greater than 25 µM.
In turn, `Cc1nc([N+](=O)[O-])cn1CC(=N)N` gave a TGI greater than 100 µM.
As to `COC(=O)/C=C/c1c(CC=C(C)C)ncn1C`, the TGI was greater than 100 µM.
The molecule `CC(C)C(=O)Nc1nc2c(ncn2C2OC(CO)C(O)C2O)c(=O)[nH]1` (configuration not stated) yielded a TGI greater than 100 µM.
The molecule `O=S(=O)(c1ccccc1)C1CN2OC1(S(=O)(=O)c1ccccc1)CC2c1ccc(Br)cc1` (configuration not stated) returned a TGI greater than 100 µM.
The same measure, in the same setting: then `O=Cc1ccc2c(c1-c1c(C=O)ccc3c1OCO3)OCO2`, with greater than 100 µM.
As to `CC(=O)O[C@H]1CCC2[C@@H]3CCC4Nc5[nH]ncc5C[C@]4(C)C3CC[C@@]21C` (some centres not stated), the TGI is greater than 100 µM.
Molecule `Cc1cc(C)nc(NS(=O)(=O)c2ccc(NC(=O)c3cccc4c(Nc5ccc(S(N)(=O)=O)cc5)c5ccccc5nc34)cc2)n1` returned a TGI greater than 100 µM.
The same measure, in the same setting: then `Cc1cc(S(=O)(=O)O)c(NC(=O)C(=O)Cc2cc(=O)oc3cc(O)ccc23)cc1Cl`, with greater than 100 µM.

A further assay deals with NCI-H522 lung. Description: DTP human tumour cell line panel, 48 h.
For `CC(C)C(=O)NS(=O)(=O)c1ccccc1`, the TGI was greater than 100 µM.
For `COC1(OC)CC2C(=O)N(Cc3ccccc3)C1C=C2S(=O)(=O)c1ccccc1` (configuration not stated), the TGI came out at 27.7 µM.
Turning to `Cc1cc(C)c(/C=C2\C(=O)Nc3ccc(NC(=O)CCCCCCC(=O)NO)cc32)[nH]1`, the GI50 was 0.208 µM and the TGI amounted to 1.82 µM.
As to `CC(=O)[O][Ga]([Br])[O]C(C)=O`, the GI50 was greater than 100 µM and the TGI is greater than 100 µM.
As for `CC(C)N(C(=O)C12C3C4C1(I)C1C2C3(I)C41C(=O)N(C(C)C)C(C)C)C(C)C` (configuration not stated), the TGI was greater than 100 µM.
In turn, `Cc1cccc(C)c1NC(=O)C(=O)C(C(=O)c1ccccc1-c1ccccc1)C1OC(=O)c2ccccc21` (configuration not stated) displayed a TGI of 24.9 µM.
`CC1COC(C)(C)P(=O)(c2ccccc2)C1` (configuration not stated) displayed a TGI greater than 100 µM.
The molecule `CCOP(=O)(OCC)OC1C=CC2CCC1C2` (configuration not stated) registered a TGI greater than 100 µM.
`COC(=O)[C@H]1C=C[C@@H](C)n2c(=O)c3cc4ccccc4cc3c(=O)n21` displayed a TGI greater than 100 µM.
With `COc1cc(C=O)c(-c2cc(OC)c(OC)cc2C=O)cc1OC`, the TGI was greater than 100 µM.
For the molecule `COc1c[c]([Hg][O]C(C)=O)c(OC)c(NC(=O)CC(C)=O)[c]1[Hg][O]C(C)=O`, the TGI was determined as 0.154 µM.
As for `O=C(/C=C/c1ccccc1Cl)NC1C=Nc2ccc([N+](=O)[O-])cc2NC1` (configuration not stated), the TGI was greater than 100 µM.
Consider `CCCO/S(=N\S(=O)(=O)c1ccccc1)c1ccccc1[N+](=O)[O-]` (configuration not stated), for which the TGI is greater than 100 µM.
`Cc1ccc(C)c(N=C2NC(=O)C(CC(=O)Nc3ccc(Cl)cc3Cl)S2)c1` (configuration not stated): the TGI is 56.5 µM.
With `C/C(CC(=O)Nc1cccc(Cl)c1C)=N\NC(=O)c1ccncc1`, the TGI came to 55 µM.
Regarding `COC(=O)/C=C/c1c(CC=C(C)C)ncn1C`, the concentration for total growth inhibition (TGI) was greater than 100 µM.
As to `CC(C)C(=O)Nc1nc2c(ncn2C2OC(CO)C(O)C2O)c(=O)[nH]1` (configuration not stated), the TGI was greater than 100 µM.
Regarding `O=S(=O)(c1ccccc1)C1CN2OC1(S(=O)(=O)c1ccccc1)CC2c1ccc(Br)cc1` (configuration not stated), the TGI was greater than 100 µM.
Consider `O=Cc1ccc2c(c1-c1c(C=O)ccc3c1OCO3)OCO2`, for which the TGI was greater than 100 µM.
Still for that read-out and setting: then `CC(=O)O[C@H]1CCC2[C@@H]3CCC4Nc5[nH]ncc5C[C@]4(C)C3CC[C@@]21C` (some centres not stated), with 83.2 µM; and `Cc1cc(C)nc(NS(=O)(=O)c2ccc(NC(=O)c3cccc4c(Nc5ccc(S(N)(=O)=O)cc5)c5ccccc5nc34)cc2)n1`, with 38.7 µM.
`Cc1cc(S(=O)(=O)O)c(NC(=O)C(=O)Cc2cc(=O)oc3cc(O)ccc23)cc1Cl` yielded a TGI greater than 100 µM.

The test system of the next assay is IGROV1 ovarian. Description: DTP human tumour cell line panel, 48 h.
The molecule `CC(C)C(=O)NS(=O)(=O)c1ccccc1` gave a TGI greater than 100 µM.
For the molecule `COC1(OC)CC2C(=O)N(Cc3ccccc3)C1C=C2S(=O)(=O)c1ccccc1` (configuration not stated), the TGI is greater than 100 µM.
